Reference: ChEMBL document CHEMBL6121064, “Recent Developments in 14-3-3 Stabilizers for Regulating Protein-Protein Interactions: An Update” (J Med Chem, 2025)

Tests used:
[1] = target: RAF proto-oncogene serine/threonine-protein kinase (Homo sapiens, UniProt P04049); assay: Inhibition of C-RAF (unknown origin)
Estrogen receptor = target: T1, Estrogen receptor (Homo sapiens, UniProt P03372); assay: Inhibition of ERalpha (unknown origin)
T1 sequence (P03372 whole entry): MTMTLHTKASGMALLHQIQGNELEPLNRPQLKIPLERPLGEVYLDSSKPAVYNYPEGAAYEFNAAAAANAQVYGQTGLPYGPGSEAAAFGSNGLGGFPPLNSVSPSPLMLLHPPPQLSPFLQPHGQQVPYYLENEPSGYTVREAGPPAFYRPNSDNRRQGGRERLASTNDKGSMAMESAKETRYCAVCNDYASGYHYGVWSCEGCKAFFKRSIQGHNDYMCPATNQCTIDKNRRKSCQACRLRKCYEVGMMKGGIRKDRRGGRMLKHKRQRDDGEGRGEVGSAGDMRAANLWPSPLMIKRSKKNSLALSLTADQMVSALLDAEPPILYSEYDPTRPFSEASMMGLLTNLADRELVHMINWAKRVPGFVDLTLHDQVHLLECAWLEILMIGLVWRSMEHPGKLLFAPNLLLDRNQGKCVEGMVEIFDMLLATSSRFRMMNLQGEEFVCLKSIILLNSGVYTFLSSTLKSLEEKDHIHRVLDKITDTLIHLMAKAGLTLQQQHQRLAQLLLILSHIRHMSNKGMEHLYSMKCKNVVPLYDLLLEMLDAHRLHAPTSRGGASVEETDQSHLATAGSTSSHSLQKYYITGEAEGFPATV

HL-60 = assay: cells; conditions: Homo sapiens, HL-60, 72 h
[2] = target: T2, 14-3-3 protein beta/alpha (Homo sapiens, UniProt P31946)
T2 sequence (P31946 whole entry): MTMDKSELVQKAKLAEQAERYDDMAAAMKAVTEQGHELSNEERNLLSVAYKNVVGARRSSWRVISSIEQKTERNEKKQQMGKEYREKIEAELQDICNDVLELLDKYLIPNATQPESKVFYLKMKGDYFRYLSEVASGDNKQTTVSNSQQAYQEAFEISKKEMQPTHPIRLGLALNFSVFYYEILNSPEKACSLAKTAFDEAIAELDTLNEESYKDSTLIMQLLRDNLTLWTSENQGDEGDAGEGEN

MIA PaCa-2 = assay: cells; conditions: Homo sapiens, MIA PaCa-2, 48 h
[3] = target: T2, 14-3-3 protein beta/alpha; remark: listed apart in the source

Chain of RAF proto-oncogene serine/threonine-protein kinase (P04049 whole entry): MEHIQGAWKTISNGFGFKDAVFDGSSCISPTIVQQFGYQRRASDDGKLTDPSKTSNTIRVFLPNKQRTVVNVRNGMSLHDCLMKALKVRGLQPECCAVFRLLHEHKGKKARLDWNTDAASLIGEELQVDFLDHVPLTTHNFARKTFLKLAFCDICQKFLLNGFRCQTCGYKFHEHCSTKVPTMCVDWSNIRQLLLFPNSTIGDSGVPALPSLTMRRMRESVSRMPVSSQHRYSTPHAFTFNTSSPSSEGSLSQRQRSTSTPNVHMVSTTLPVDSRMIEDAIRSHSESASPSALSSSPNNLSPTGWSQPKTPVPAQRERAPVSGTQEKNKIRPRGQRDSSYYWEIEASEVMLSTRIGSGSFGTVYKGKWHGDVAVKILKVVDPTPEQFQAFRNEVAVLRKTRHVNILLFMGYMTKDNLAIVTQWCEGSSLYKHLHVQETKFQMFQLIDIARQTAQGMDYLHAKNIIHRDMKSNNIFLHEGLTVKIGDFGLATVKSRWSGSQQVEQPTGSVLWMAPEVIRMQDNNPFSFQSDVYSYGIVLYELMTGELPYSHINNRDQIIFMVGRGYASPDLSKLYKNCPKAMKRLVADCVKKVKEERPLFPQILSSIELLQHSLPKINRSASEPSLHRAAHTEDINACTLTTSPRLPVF

SMILES	IC50 [1]	IC50 (Estrogen receptor)	also measured
CN(C)CCSSCCC(=O)N1CCC(O)(c2cccc(C(F)(F)F)c2)CC1	77 µM	–	–
CN(C)CCSSCCNC(=O)C1CCN(C(=O)C(C)(C)Oc2ccc(Cl)cc2)CC1	81 µM	19 µM	–
COC[C@H]1CC[C@@H]2/C1=C\[C@@]1(C)CCC(C(C)C)=C1C(O[C@@H]1O[C@@H](CNCc3ccccc3)[C@H](O)[C@@H](O)[C@@H]1O)[C@H](O)[C@@H]2C (stereo partly drawn)	–	–	IC50 (HL-60): 0.25 µM
O=Cc1ccc(-n2ccnc2-c2ccc(F)cc2F)cc1Br	–	–	IC50 [2]: 250 µM
CN(C)CCSSCCNC(=O)C1CCCN(C(=O)c2ccc(Oc3ccccc3)cc2)C1 (stereo not drawn)	426 µM	426 µM	–
NCCCNCCS [WR-1065]	–	2.8 µM	–
CC(C)CC(NC(=O)[C@H](O)[C@H](N)Cc1ccccc1)C(=O)O (stereo partly drawn)	–	1.8 µM	–
COC[C@H]1CC[C@@H]2/C1=C\[C@@]1(C)CCC(C(C)C)=C1C(O[C@@H]1O[C@H]3COC(C)(C)O[C@@H]3[C@@H](O)[C@@H]1O)[C@H](O)[C@@H]2C (stereo partly drawn)	–	–	IC50 (MIA PaCa-2): 18 µM
N=C(N)c1cc(-c2cccc(NC(=O)C3(Oc4ccc(Cl)cc4)CCC(N)CC3)c2)cs1 (stereo not drawn)	–	–	IC50 [3]: 151 µM

Continued, in another order:

IC50 [1]	IC50 (Estrogen receptor)	SMILES	also measured
246 µM	–	COc1ccc2cc([C@H](C)C(=O)N3CCC(C(=O)NCCSSCCN(C)C)CC3)ccc2c1	–
–	80 µM	O=C(C1=C(O)C(=O)N(c2ccc(O)c(C(=O)O)c2)C1c1ccc([N+](=O)[O-])cc1)c1ccccc1 (stereo not drawn)	–
